Reference: patent publication US20240131032A1, “AN ACTIVITY-GUIDED MAP OF ELECTROPHILE-CYSTEINE INTERACTIONS IN PRIMARY HUMAN IMMUNE CELLS” (The Scripps Research Institute, priority 2019, published 2024)

Assays:
[1] = test system: primary human T cells; assay: T cell viability by flow cytometry (near-IR LIVE/DEAD stain); format: cell-based; settings: for cytotoxicity: concentration-dependent profiles, at <20 μM
Method: FIG. 4A-4D is an overview of a multidimensional screen to identify elaborated electrophilic compounds that suppress T cell activation. FIG. 4A is a workflow for T-cell activation screen. Primary human T cells were treated with a focused library of elaborated electrophilic compounds (10 μM, structures of compounds in FIG. 12), a positive control immunosuppressive compound (DMF, 50 μM), or DMSO under TCR-stimulating conditions in 96-well plates pre-coated with 5 μg/mL αCD3 and 2 μg/mL αCD28 for 24 h. T cell activation was measured using a combination of markers, including IL2 and IFNγ secretion, as well as surface expression of CD25 and CD69. T cell viability was measured by flow cytometry using a Fixable Near-IR LIVE/DEAD™ Cell Stain. Compounds were considered as active hits if they reduced IL2 cytokine production by >65% with <15% reduction in T cell viability in the cytotoxicity assay compared to DMSO control. […] FIG. 4C are structures of active hit compounds selected for follow-up studies, including two acrylamides (BPK-21, BPK-25), two chloroacetamides (EV-3, EV-93) and DMF as a positive control. FIG. 4D are line graphs showing T cell activation and cytotoxicity profiles for selected hit compounds.
Non-tissue culture treated 96-well plates were pre-coated with αCD3 (5 μg/mL) and αCD28 antibodies (2 μg/mL) in PBS (100 μL/well) and left at 4° C. overnight. Freshly isolated T cells were re-suspended in RPMI media supplemented with 10% FBS, L-glutamine (2 mM), penicillin (100 U/mL), and streptomycin ([…]) at 2×10^6 cells/mL. Compound stocks (200×) in DMSO were diluted to 2× stocks in the working RPMI media in another 96-well plate. The pre-coated 96-well treatment plates were washed with PBS ([…]), T cells (100 μL/well, 2×10^5 cells/well) were then added to the wells, followed by the addition of 2× compound stocks in RPMI media (100 μL). The outer wells of the plates were filled with media without cells to avoid the edge effect in the assay. The treatment was done overnight (24 h) at 37° C. in a 5% CO2 containing incubator. Following the treatment, the cells were transferred to a U-bottom 96-well plate and harvested by centrifugation (600 g, 3 min, 4° C.). The supernatants were kept and stored at −80° C. for further cytokine analysis, while the cells were washed with PBS (2×150 μL) prior to staining for flow cytometry analysis.
Following the PBS washes, the cells were stained with fixable near-IR LIVE/DEAD cell stain (Invitrogen) according to manufacturer's instructions. Briefly, one vial of near-IR LIVE/DEAD dye was resuspended in DMSO (50 μL) and diluted with PBS (1:1000). The diluted stain was added to each well (200 μL) and the cells were incubated for 30 min at room temperature in the dark. After this time, the cells were pelleted (600 g, 3 min, 4° C.), washed once with PBS (200 μL/well) and incubated with a freshly made cocktail of antibodies for the appropriate cell surface markers diluted in PBS containing 2% FBS (1:400 antibody dilution).

[2] = test system: FAM213B and HLA-F; assay: Expression-based proteomics (TMT-exp) of compound-treated T cells, FAM213B and HLA-F; format: cell-based, human; settings: 24 h; >3000 total proteins quantified
Method: FIG. 7B is a scatter plot representation of protein abundance changes caused by BPK-25 (10 μM, 24 h) in two independent replicate experiments, with decreases in NuRD complex components highlighted in red. FIG. 7C is a heatmap of top proteins with decreased abundance in BPK-25-treated T cells showing that the subset of these proteins in the NuRD complex (asterisks) were largely unaltered by other active compounds and blocked in their degradation by co-treatment with the proteasome inhibitor MG132. […] FIG. 7E is a bar graph […] showing time-dependent reductions in NuRD complex members in human T cells treated with BPK-25 (10 μM). Left, representative western blots. Right, quantification of changes in protein. […] FIG. 7G is a heat map showing the changes in cysteine reactivity for NuRD complex members in human T cells treated with BPK-25 and other active compounds.
Freshly isolated T cells (1.6×10^7 cells, 2×10^6 cells/mL in RPMI media) were treated with compound or DMSO for 24 h, pelleted (600 g, 5 min), and washed with PBS (1×10 mL). The cells were then transferred to an Eppendorf tube in additional PBS (1 mL), pelleted (600 g, 5 min), flash frozen, and kept at −80° C. until further analysis. […]
At individual TMT experiment level, the following filters were applied to remove low-quality peptides: removal of non-unique peptides; removal of half-tryptic peptides; removal of peptides with more than one internal miscleaved site; removal of cysteine-containing peptides; removal of peptides with low (<10,000) sum of reporter ion intensities for control channels, and peptides with high variation between the replicate control channels (coefficient of variance >0.5). R values (compound-treated vs. DMSO-treated) were calculated using the reporter ion intensities of compound and DMSO treated TMT channels for each treatment group. […] Proteins were required to have at least two unique quantified peptides in each experiment and were quantified in at least two independent experiments.

| Compound | cytotoxicity [1] | reductions in FAM213B and HLA-F [2] | viability ([1]; electrophilic compounds 10 μM each (DMF 50 μM), 24 h) [%] |
| --- | --- | --- | --- |
| C=CC(=O)N(Cc1cccc(Cl)n1)c1ccc(C(=O)Nc2ccccc2)nc1 [BPK-25] | negligible cytotoxicity | > 50% |  |
| O=C(CCl)N1CCN(S(=O)(=O)c2ccc(-c3ccncc3)cc2)CC1 [EV-3] | negligible cytotoxicity | also affected |  |
| COC(=O)/C=C/C(=O)OC [DMF, reference compound] |  |  | > 85 |
| C=CC(=O)N(Cc1cccc(Cl)c1Cl)c1ccc(Oc2ccccc2)c(C(F)(F)F)c1 [BPK-21] | negligible cytotoxicity | also affected |  |
